{"source": "patent US20250144091A1", "about": "“SITAGLIPTIN PREPARATION AND METHOD OF STORAGE THEREOF” (SAWAI PHARMACEUTICAL CO., LTD., priority 2023, published 2025)", "key": {"[1]": {"test": "Acceptable daily intake of NTTP (EMA/FDA)", "conditions": "37 ng corresponds to 0.088 ppm", "description": "Recently, the European Medicines Agency (EMA) and the U.S. Food and Drug Administration (FDA) have announced that 7-Nitroso-3-(trifluoromethyl)-5,6,7,8-tetrahydro[1,2,4]triazolo-[4,3-a]pyrazine (NTTP), which is classified into nitrosamines, has been detected in a sitagliptin preparation. Nitrosamines are known to be potentially carcinogenic, and an acceptable intake of NTTP is set at 37 ng daily. NTTP is produced by the reaction of 3-(trifluoromethyl) 5,6,7,8-tetrahydro[1,2,4]triazolo-[4,3-a]pyrazine, which is produced by hydrolysis of sitagliptin, with nitrogen oxides such as nitrous acid. Nitrogen oxides are contained in small amounts in additives, as well as in the water and air used in the preparation process. Although the production pathway of NTTP is expected as described above, its reactivity is unknown. Therefore, a specific method for reducing the amount of NTTP in a preparation was completely unknown.\nGenerally, the criterion for reporting the amount of related substances in a preparation is 1,000 ppm, but it is a very difficult task to suppress the production of NTTP in a sitagliptin preparation because a daily acceptable intake of NTTP of 37 ng corresponds to 0.088 ppm."}, "[2]": {"conditions": "set limit for nitrosamine in sitagliptin preparation; cited from earlier work"}}}
{"smiles": "O=NN1CCn2c(nnc2C(F)(F)F)C1", "note": "[NTTP, 7-Nitroso-3-(trifluoromethyl)-5,6,7,8-tetrahydro[1,2,4]triazolo-[4,3-a]pyrazine]", "values": [{"measurement": "daily acceptable intake of NTTP expressed as content in the preparation", "setting": "[1]", "result": 0.088, "unit": "ppm"}, {"measurement": "acceptable intake of NTTP", "setting": "[2]", "result": 37, "unit": "ng daily"}]}
